Laboratory results as given in PMC6447857, “Structural Study of Agmatine Iminohydrolase From Medicago truncatula, the Second Enzyme of the Agmatine Route of Putrescine Biosynthesis in Plants” (Frontiers in Plant Science, 2019).

Target: T1, MtAIH (Medicago truncatula, UniProt G7JT50)
T1 construct: gene AIH; ORF from codon 11 (leaf cDNA), pMCSG68, N-terminal His6-tag removed by TEV, Ser-Asn-Ala linker kept; E. coli BL21 Gold; homodimer (81 kDa by MALS)
Test: X-ray crystallography (cocrystallization), […] A
Assay type: binding
Conditions: 10 mM ligand, Morpheus Screen, pH 6.5; active site; reaction product analog; bound in three of four chains

T1 sequence (G7JT50 11-374): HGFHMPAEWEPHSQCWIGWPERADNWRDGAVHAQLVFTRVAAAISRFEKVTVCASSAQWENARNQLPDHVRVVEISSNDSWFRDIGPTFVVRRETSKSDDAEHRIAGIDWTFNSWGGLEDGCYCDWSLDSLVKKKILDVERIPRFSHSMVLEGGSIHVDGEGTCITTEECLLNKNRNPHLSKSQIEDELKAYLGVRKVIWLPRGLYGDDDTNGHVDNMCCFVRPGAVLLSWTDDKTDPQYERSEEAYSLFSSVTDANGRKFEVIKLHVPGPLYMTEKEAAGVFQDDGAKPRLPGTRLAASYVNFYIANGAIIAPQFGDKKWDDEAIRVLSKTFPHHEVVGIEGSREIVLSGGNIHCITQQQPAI

NCCCCCC(N)=O [AHX, 6-aminohexanamide] was tested, and the “X-ray crystallography (cocrystallization), 2.20 A” value was “The MtAIH-AHX structure was obtained by cocrystallization and presents the bound AHX”.
